The results in this text go back to patent publication EP0378285A1, “Substituted alkenes, processes for their preparation and their use as pesticides” (priority 1989, dated 1990).

Some results are limits rather than exact numbers.

What all share (format): in vivo
Series [1] has as its system corn rootworm (Diabrotica undecimpunctata). In words: Use Example D: activity against eggs/larvae of the corn rootworm. The note with it: 168 h; for activity: corn rootworm, in vivo; for mortality at 0.1 %: Diabrotica undecimpunctata, aqueous emulsion 0.1%, 0.2 ml pipetted into soil, 7 days at 25 C, death of eggs or newly hatched larvae. The procedure: Activity against eggs/larvae of the corn rootworm (Diabrotica undecimpunctata)
The compounds of the invention were made up as aqueous emulsions at a concentration of 0.1%. Into the soil in polystyrene petri dishes, containing maize seedlings (1 seedling/dish) and ca. 50 eggs of the corn rootworm (Diabrotica undecimpunctata) were pipetted 0.2 ml of these preparations. The closed dishes were left at 25 C under extended daylight conditions for 7 days. The criterion for judging the activity was the death of eggs or newly hatched larvae at the end of the test.

For series [2], the system named is brown rice-hoppers (Niliparvata lugens Stal). In words: Use Example B: activity in prophylactic treatment of leaves against brown rice-hoppers. The note with it: 48 h; for mortality at 0.1 %: read-out: activity. An excerpt: Activity in prophylactic treatment of leaves against brown rice-hoppers (Niliparvata lugens Stal)
Rice seedlings (Oryzae sativa L.) in the two leaf stage (about 10 per polystyrene pot of size 6.5 x 6.5 cm) were either untreated or […] until dripping wet, with an aqueous preparation containing 0.1 % of active material. After drying the sprayed leaves, a transparent cylinder was placed over each pot and through an opening, about 30 brown rice-hoppers (Niliparvata lugens) in the 4-5 stage, anaesthetised with carbon dioxide, were introduced into each pot. After closing the opening with a fine mesh screen, the pots were kept for 2 days at 28° C and 16 hours/day of light in the glasshouse, the amount of dead hoppers was determined. The percentage mortality was then estimated and the activity calculated using Abbott's method in comparison with the untreated controls.

The next series relates to Aphis fabae. Description: Activity in prophylactic treatment of leaf discs against Aphis fabae. The conditions noted are these: 48 h; for mortality at 0.1 %: Aphis fabae, foliar, 0.1% aqueous preparation, field bean leaf discs infested with wingless stages, 2 days at 25 C, percentage mortality, Abbott's method. The procedure: From the primary leaf of field beans (Phaseolus vulgaris nanus Aschers.), 24 mm diameter discs were cut. Some of these were treated with a 0.1% aqueous preparations of compounds of the invention and these along side untreated discs were placed on filter papers with the underside of the leaves turned upwards. After drying the test pieces, they were each infested with wingless stages of Aphis fabae (approx 100 per leaf piece). The experiment was replicated 3 times. The leaves were kept on wet filter papers for 2 days at 25 C and 16 hours light per day. The percentage mortality was then estimated and the activity calculated using Abbott's method in comparison with the untreated controls.

For series [3], the system named is cotton army worm (Spodoptera littoralis). In words: Use Example F: ovicidal activity against eggs of the cotton army worm. The note with it: aqueous preparation 0.1 %; one day old eggs dipped; four days; % inhibition of hatching of the eggs. An excerpt: Ovicidal activity against eggs of the cotton army worm (Spodoptera littoralis).
The compounds of the invention were made up as aqueous preparations at a concentration of 0.1 %. One day old eggs that had been laid on filter paper by fertilised female moths were dipped in the preparations until they were completely wet and then placed in closed petri dishes in the laboratory under extended daylight conditions for four days. The % inhibition of hatching of the eggs in comparison with untreated eggs indicates the level of activity.

Series [4] deals with two spotted mite (Tetranychus urticae Koch). Description: Use Example C: activity in the prophylactic treatment of feed against the two spotted mite. The conditions noted are these: foliar, 0.1 % aqueous preparation, field bean leaf discs, adults and eggs counted after 3 days at 25 C, larvae after a further 7 days, Abbott's method. As for the experimental part: Activity in the prophylactic treatment of feed against the two spotted mite (Tetranychus urticae Koch)
From the primary leaf of field beans (Phaseolus vulgaris nanus Aschers.) 14 mm diameter discs were cut. Some of these were treated with a 0.1 % aqueous preparations of compounds of the invention and these along side untreated discs were placed on filter papers with the underside of the leaves turned upwards. After drying the test pieces, they were each infested with six adult female Tetranychus urticae and maintained for 3 days at 25 C and 16 hours light per day. The experiment was replicated 4 times. Dead and alive adults were then counted and removed. Similarly the number of eggs laid were counted. After a further 7 days, the number of living larvae were counted, the activity calculated using Abbott's method in comparison with the untreated controls.

The test system of series [5] is cotton bollworm (Heliothis viriscens). In words: whole plant or invertebrate. The conditions noted are these: 48 h, read-out: activity. As for the experimental part: Activity against larvae (L1) of the cotton bollworm (Heliothis viriscens)
Compounds of the invention were made up as aqueous preparations at a concentration of 0.1 %. Into these, feed material was dipped for 2 seconds. After drying the feed material was put into into polystyrene petri dishes. After an hour, 10 L1 of the cotton bollworm (Heliothis viriscens) were counted into the dishes. The closed dishes were left for up to 7 days at 25 °C under extended daylight conditions. The % mortality of the larvae after two days indicated the level of activity.

Turning to `C=C(C)C(C)(C)CCCc1cccc(Oc2ccccc2)c1` [Example 1, 6-(3-Phenoxyphenyl)-2,3,3,-trimethyl-1-hexene], the activity in series [1] was 80-100%; in series [2] (brown rice-hopper, in vivo) it was not below 80%.
Turning to `CC(C)(COCc1ccc(F)c(Oc2ccccc2)c1)C1=CCCCC1` [Example 2, 2-(Cyclohexen-1-yl)-2-methyl-1-(4-fluoro-3-phenoxybenzyloxy)propane], the figures for the mortality at 0.1 % (in series [1]; in the series on Aphis fabae; in series [2]) were 80 to 100%, not below 80% and not below 80%, respectively.
Regarding `C=C(C)C(C)(C)CCCc1ccc(F)c(Oc2ccccc2)c1` [Example 4, 6-(4-fluoro-3-phenoxyphenyl)-2,3,3-trimethyl-1-hexene], in series [3], the activity is on record as 80 - 100%. Also, the mortality at 0.1 % in series [1] is 80 to 100%; in the series with Aphis fabae, not below 80%; in series [4] it was 80 to 100%; in series [2], not below 80%; in series [5], 80 to 100%.
In the case of `C=C(Br)C(C)(C)COCc1cccc(Oc2ccccc2)c1` [Example 7, 2-bromo-3,3-dimethyl-4-(3-phenoxy-benzyloxy)-1-butene], the mortality at 0.1 % was 80 to 100% in series [1], not below 80% in the series on Aphis fabae and 80 to 100% in series [4].
With `CC(C)(COCc1cccc(Oc2ccccc2)c1)C1=CCCCC1` [Example 8, 2-(cyclohexen-1-yl)-2-methyl-1-(3-phenoxybenzyloxy)propane], the mortality at 0.1 % in series [1] and in series [5] was 80 to 100% throughout.
With `CC(C)(COCc1ccc(F)c(Oc2ccccc2)c1)C1=CCCC1` [Example 10, 2-(cyclopenten-1-yl)-1-(4-fluoro-3-phenoxybenzyloxy)-2-methylpropane], the mortality at 0.1 % with Aphis fabae was not below 80%; in series [4] it was 80 to 100%; in series [5], 80 to 100%.
With `C=C(c1ccccc1)C(C)(C)COCc1ccc(F)c(Oc2ccccc2)c1` [Example 14, 3,3-dimethyl-4-(4-fluoro-3-phenoxy-benzyloxy)-2-phenyl-1-butene], the mortality at 0.1 % in series [2] was not below 80%.
Compound `C=C(c1ccccc1)C(C)(C)COCc1cccc(-c2ccccc2)c1C` [Example 15, 3,3-dimethyl-4-(2-methyl-3-phenyl-benzyloxy)-2-phenyl-1-butene] displayed a mortality at 0.1 % in series [4] of 80 to 100%.
As for `C=C(C)C(C)(C)COCc1cccc(Oc2ccccc2)n1` [Example 17, 4-(6-phenoxypyridin-2-ylmethoxy)-2,3,3-trimethyl-1-butene], the mortality at 0.1 % in series [1] is 80 to 100%; in series [2] it was not below 80%.
For `C=C(C)C(C)(C)CCCc1cccc(Oc2ccccc2)n1` [Example 18, 6-(6-phenoxypyridin-2-yl)-2,3,3-trimethyl-1-hexene], the mortality at 0.1 % in series [1] is 80 to 100%; in the series on Aphis fabae, not below 80%; in series [4] it was 80 to 100%; in series [2], not below 80%.
For the compound `C=C(C)C(C)(C)COCc1cccc(Oc2ccc(Cl)cc2)c1` [Example 21, 4-[3-(4-chlorophenoxy)benzyloxy]-2,3,3-trimethyl-1-butene], the mortality at 0.1 % was 80 to 100% in series [1], not below 80% in the series with Aphis fabae, 80 to 100% in series [4] and not below 80% in series [2].
As for `C=C(C)C(C)(C)COCc1cccc(Oc2cccc(C(F)(F)F)c2)c1` [Example 24, 4-[3-(3-trifluoromethylphenoxy)-benzyloxy]-2,3,3-trimethyl-1-butene], the mortality at 0.1 % in series [2] is not below 80%.
Still for that read-out and setting: then `C=C(C(C)C)C(C)(C)COCc1cccc(Oc2ccccc2)c1` [Example 25, 3-methylene-5-(3-phenoxy-benzyloxy)-2,4,4-trimethylpentane], with not below 80%.
Turning to `C=C(C(C)C)C(C)(C)COCc1ccc(F)c(Oc2ccccc2)c1` [Example 26], the activity in series [1] is 80-100%; in the series with Aphis fabae (aphis fabae, in vivo), not below 80%.
Take `CC(C)(COCc1ccc(F)c(Oc2ccccc2)c1)C1=CCOCC1` [Example 44, 1-(4-fluoro-3-phenoxybenzyloxy)-2-methyl-2-(4-oxacyclohexen-1-yl)propane]: in series [2], the mortality at 0.1 % was not below 80%.
Regarding `C=C(C)C1(COCc2ccc(F)c(Oc3ccccc3)c2)CC1` [Example 51, 2-(4-fluoro-3-phenoxybenzyloxy-methyl)-2-isopropenylcyclopropane], the mortality at 0.1 % is 80 to 100% in series [1], not below 80% with Aphis fabae and not below 80% in series [2].
With `C=C(Br)C(C)(C)COCc1ccc(F)c(Oc2ccccc2)c1` [Example 59, 2-bromo-3,3-dimethyl-4-(4-fluoro-3-phenoxybenzyloxy)-1-butene], the mortality at 0.1 % is 80 to 100% in series [1]; not below 80% in the series on Aphis fabae; 80 to 100% in series [4]; not below 80% in series [2]; 80 to 100% in series [5].
Turning to `C=C(I)C(C)(C)COCc1ccc(F)c(Oc2ccccc2)c1` [Example 60, 3,3-dimethyl-2-iodo-4-(4-fluoro-3-phenoxybenzyloxy)-1-butene], the values for the mortality at 0.1 % (in the series on Aphis fabae; in series [4]; in series [2]) were not below 80%, 80 to 100% and not below 80%, respectively.
Turning to `C=C(c1ccccc1)C(C)(C)COCc1c(F)c(F)c(F)c(F)c1F` [Example 61, 3,3-dimethyl-4-(2,3,4,5,6-pentafluoro-benzyloxy)-2-phenyl-1-butene], the mortality at 0.1 % in series [4] is 80 to 100%.
As to `CC(C)(COCc1c(F)c(F)c(F)c(F)c1F)C1=CCCC1` [Example 62, 2-(cyclopenten-1-yl)-2-methyl-1-(2,3,4,5,6-pentafluorobenzyloxy)propane], in series [5], the mortality at 0.1 % was 80 to 100%.
`C=C(I)C(C)(C)CCCc1cccc(Oc2ccccc2)c1` [Example 63, 3,3-dimethyl-2-iodo-6-(3-phenoxy-phenyl)-1-hexene]: the values for the mortality at 0.1 % in series [2] and in series [5] were not below 80% and 80 to 100%, respectively.
